The source of these data is ChEMBL document CHEMBL6115028, “An Amazing 30-Year Journey around the DABO Family: A Medicinal Chemistry Lesson on a Versatile Class of Non-nucleoside HIV-1 Reverse Transcriptase Inhibitors” (J Med Chem, 2025).

In data set [1] the test system is Human immunodeficiency virus 1. The data set can be described thus: Antiviral activity against wild type HIV-1 IIIB infected in human MT4 cells assessed as protection against virus-induced cytopathic effect incubated for 72 hrs by MTT assay. Format: functional, organism-based. As to conditions: Human immunodeficiency virus 1, IIIB, MT4, 72 h.
The subject of data set [2] is MT4. Briefly: Cytotoxicity against human MT4 cells. The class given is functional.
A further data set relates to MT2. The data set can be described thus: Cytotoxicity against human MT2 cells. The class given is functional.
The target of data set [3] is T1, Reverse transcriptase (Human immunodeficiency virus 1, UniProt Q9WKE8, K103N). The data set can be described thus: Binding affinity to HIV-1 reverse transcriptase K103N mutant assessed as inhibition constant.
Data set [4] deals with Human immunodeficiency virus 1. The data set can be described thus: Antiviral activity against wild type HIV-1 NL4-3 infected in human MT4 cells assessed as reduction in viral replication measured for 72 hrs by ELISA analysis. The class given is functional, organism-based. The following applies: Human immunodeficiency virus 1, NL4-3, MT4, 72 h.
Data set [5] can be described thus: Binding affinity to HIV-1 reverse transcriptase Y181L mutant assessed as inhibition constant. Details: species or system Human immunodeficiency virus 1.
Data set [6] deals with Human immunodeficiency virus 1. The data set can be described thus: Antiviral activity against HIV-1 harboring protease V82F mutant infected in human C8166 cells assessed as inhibition of viral replication measured for 72 hrs by spectrophotometric MTT assay. The class given is functional, organism-based. As to conditions: Human immunodeficiency virus 1, C8166, 72 h.
A short description of data set [7]: Cytotoxicity against African green monkey Vero cells assessed as reduction in cell viability incubated for 72 hrs by MTT assay. Format: toxicity, cell-based. The following applies: chlorocebus sabaeus.
Data set [8] deals with Human immunodeficiency virus 1. The data set can be described thus: Antiviral activity against wild type HIV-1 IIIB infected in human MT4 cells assessed as reduction in cytopathic effect measured after 4 days by MTT assay. The class given is functional, organism-based. The following applies: Human immunodeficiency virus 1, IIIB, MT4, 96 h.
Data set [9] has as its system Human immunodeficiency virus 1. The data set can be described thus: Antiviral activity against […] infected in human MT4 cells assessed as reduction in cytopathic effect measured after 4 days by MTT assay. The class given is functional, organism-based. As to conditions: Human immunodeficiency virus 1, IIIB, MT4, 96 h.
For data set [10], the system named is Human immunodeficiency virus 1. The data set can be described thus: Antiviral activity against wild type HIV-1 IIIB harboring Y181C/K103N double mutant infected in human MT4 cells assessed as reduction in cytopathic effect measured after 4 days by MTT assay. Format: functional, organism-based. As to conditions: Human immunodeficiency virus 1, IIIB, MT4, 96 h.

Data set [11] deals with MT4. Briefly: Cytotoxicity against human MT4 cells assessed as reduction in cell viability incubated for 4 days by MTT assay. Format: functional. As to conditions: MT4, 96 h, time 4 day.
Data set [12] relates to Human immunodeficiency virus 1. The data set can be described thus: Antiviral activity against HIV-1 infected in human MT4 cells. The class given is functional, organism-based. The following applies: Human immunodeficiency virus 1, MT4.
A short description of data set [13]: Selectivity index, ratio of CC50 for human MT4 cells to EC50 for antiviral activity against HIV1 infected in human MT4 cells. Format: toxicity, cell-based. As to conditions: read-out: Ratio CC50/EC50.
Data set [14] has as its target Human immunodeficiency virus type 1 reverse transcriptase (Human immunodeficiency virus 1, UniProt Q72547). Briefly: Inhibition of wild type HIV-1 Reverse transcriptase.
The test system of data set [15] is MT4. Briefly: Cytotoxicity against human MT4 cells assessed as reduction in cell growth after 5 days by MTT assay. Format: functional. The following applies: MT4, 120 h, time 5 day.
The test system of data set [16] is Human immunodeficiency virus 1. Briefly: Antiviral activity against wild-type HIV-1 IIIB infected in human MT4 cells assessed as reduction in virus-induced cytopathic effect incubated for 5 days by MTT assay. Format: functional, organism-based. The following applies: Human immunodeficiency virus 1, IIIB, MT4, 120 h.
Data set [17] concerns Human immunodeficiency virus 1. Briefly: Antiviral activity against HIV-1 NL4-3 harboring infected K103N mutant infected in human MT4 cells assessed as reduction in viral replication. Format: functional, organism-based. The following applies: Human immunodeficiency virus 1, NL4-3, MT4.
Data set [18] deals with T1, Reverse transcriptase. Briefly: Inhibition of HIV-1 Reverse transcriptase K103N mutant.
Data set [19] relates to Human immunodeficiency virus 1. Briefly: Antiviral activity against HIV-1 NL4-3 harboring infected Y181C mutant infected in human MT4 cells assessed as reduction in viral replication. Format: functional, organism-based. The following applies: Human immunodeficiency virus 1, NL4-3, MT4.
In data set [20] the test system is Human immunodeficiency virus 1. Briefly: Antiviral activity against wild type HIV-1 NL4-3 infected in human MT4 cells assessed as reduction in viral replication. Format: functional, organism-based. As to conditions: Human immunodeficiency virus 1, NL4-3, MT4; read-out: EC50.
The test system of data set [21] is Human immunodeficiency virus 1. The data set can be described thus: Antiviral activity against HIV-1 NL4-3 harboring infected Y188L mutant infected in human MT4 cells assessed as reduction in viral replication. The following applies: Human immunodeficiency virus 1, NL4-3, MT4. Format: functional, organism-based.
Data set [22] concerns Human immunodeficiency virus 1. The data set can be described thus: Antiviral activity against wild type HIV-1 IIIB infected in human MT4 cells assessed as protection against virus-induced cytopathic effect incubated for 5 days by MTT assay. As to conditions: Human immunodeficiency virus 1, IIIB, MT4, 120 h; time 5 day; read-out: ED50 (the source's name). The class given is functional.

Data set [23] concerns Human immunodeficiency virus 1. The data set can be described thus: Antiviral activity against HIV-1 3B infected in human MT4 cells assessed as reduction in viral replication incubated for 5 days by MTT assay. The following applies: Human immunodeficiency virus 1, 3B, MT4, 120 h. The class given is functional, organism-based.
Data set [24] concerns MT4. Briefly: Cytotoxicity against human MT4 cells assessed as reduction in cell growth incubated for 5 days by MTT assay. As to conditions: MT4, 120 h, time 5 day. Format: functional.

Some results are limits rather than exact numbers.

As to `Cc1cc(C)cc(Cc2nc(Sc3cccnc3)[nH]c(=O)c2C)c1`, the EC50 in data set [1] is 1600 nM. The cytotoxic concentration (CC50) with MT4 [2] is 55000 nM.
As to `CCOCn1c(SC)nc(C(C)C)c1CC1CCCCC1`, in the data set on MT2, it took 39000 nM to reach half-maximal cytotoxicity (CC50).
Take `CC(c1cc(=O)[nH]c(N(C)C)n1)c1c(F)cccc1Cl` (stereo not given): the Ki on Reverse transcriptase [3] amounted to 1000 nM. Besides, in data set [4], the EC50 was found to be 7 nM.
With `Cc1c(C(C)c2c(F)cccc2F)nc(N(C)C(C)C)[nH]c1=O` (stereo not given), the values for the inhibition constant Ki (on Reverse transcriptase [3]; in data set [5]) were 80 nM and 1190 nM, respectively. In [4], the EC50 was found to be 5 nM.
For `CCN(C)c1nc(C(C)c2c(F)cccc2F)c(C)c(=O)[nH]1` (stereo not given), in that order: 500 nM, 4000 nM and 3 nM.
`CSCSc1nc(Cc2c(F)cccc2F)cc(=O)[nH]1`: in data set [6], the EC50 came out at 800 nM. For the same molecule, the CC50 at 72 h in [7] was greater than 200000 nM.
In the case of `C=C(c1nc(N(C)C)[nH]c(=O)c1C)c1c(F)cccc1F`, the EC50 is 200 nM in data set [8], 44000 nM in data set [9] and greater than 100000 nM in [10]. The half-maximal cytotoxic concentration (CC50) in the data set on MT4 [11] is greater than 100000 nM.
`CSCCSc1nc(C2(c3c(F)cccc3F)CC2)c(C)c(=O)[nH]1`: in [12], the EC50 amounted to 5 nM. Also, the selectivity ratio in [13] is 2330. This molecule also had a CC50 in the data set on MT4 [2] of 14000 nM.
In [14], `COc1ccc(Cn2cc(CSc3nc(Cc4c(Cl)cccc4Cl)c(C)c(=O)[nH]3)nn2)cc1` registered an IC50 of 4560 nM. The molecule also had a cytotoxic concentration (CC50) with MT4 [2] of 29000 nM.
Turning to `Cc1c(C(Br)c2c(F)cccc2F)nc(N(C)C)[nH]c1=O` (stereo not given), the EC50 in data set [8] is 200 nM; in [9], 43000 nM; in data set [10] it was 43000 nM. Further, the CC50 in the data set on MT4 [11] was determined as 43000 nM.
As to `Cc1cc(C)cc(OCCSc2nc(Cc3ccccc3)cc(=O)[nH]2)c1`, in [6], the EC50 was 1300 nM. Further, in data set [7], the 50% cytotoxic concentration (CC50) at 72 h is 72900 nM.
Take `Cc1c(Cc2c(F)cccc2F)nc(NC2CCCCC2)[nH]c1=O`: the 50% cytotoxic concentration (CC50) with MT4 [15] was 200000 nM. In [16], the EC50 came to 5 nM.
As to `CSCSc1nc(Cc2c(Cl)cccc2Cl)cc(=O)[nH]1`, in data set [6], the EC50 is 1300 nM. The 50% cytotoxic concentration (CC50) at 72 h in [7] turned out to be 48100 nM.
Turning to `Cc1c(C(F)c2c(F)cccc2F)nc(N(C)C)[nH]c1=O` (stereo not given), the EC50 in data set [8] is 20 nM; in [9], 2800 nM; in [10], greater than 100000 nM. The 50% cytotoxic concentration (CC50) in the data set on MT4 [11] was greater than 100000 nM.
For the molecule `CCCSc1nc(C2(c3c(F)cccc3F)CC2)c(C)c(=O)[nH]1`, the EC50 in data set [12] was 4 nM. Also, the selectivity ratio in data set [13] stood at 3000. Also, in the data set with MT4 [2], the CC50 amounted to 12000 nM.
For the molecule `COc1ccc(C2CC2CN(C)c2nc(C(C)c3c(F)cccc3F)cc(=O)[nH]2)cc1` (stereo not given), the EC50 in data set [17] was 70 nM; in data set [19], greater than 5000 nM; in [20] it was 3 nM; in data set [21], 2950 nM. Further, at Reverse transcriptase [18], the half-inhibitory concentration (IC50) came out at 985 nM.
As to `CCc1c(Cc2cc(C)cc(C)c2)n2c(nc1=O)SCCOC2`, the EC50 in data set [22] is 600 nM.
For `CCC(C)Sc1nc(Cc2cc(C)cc(C)c2)c(I)c(=O)[nH]1` (stereo not given), in data set [23], the EC50 is 4300 nM. In addition, the 50% cytotoxic concentration (CC50) in the data set on MT4 [24] stood at 144000 nM.
Regarding `Cc1cc(C)cc(Cc2nc(Sc3cccc4ccccc34)[nH]c(=O)c2C)c1`, the EC50 in data set [1] was 1600 nM. In the data set on MT4 [2], the CC50 was greater than 100000 nM.
In the case of `Cc1c(C(C)c2c(F)cccc2F)nc(N(C)C)[nH]c1=O` (racemic), the EC50 in data set [9] came to 700 nM; in [10], 900 nM. The CC50 in the data set with MT4 [11] was greater than 100000 nM.
Take `CCC(C)Sc1nc(Cc2cc(C)cc(C)c2)c(C)c(=O)[nH]1` (stereo not given): in data set [23], the EC50 worked out at 600 nM. Besides, in the data set on MT4 [24], the CC50 was 86000 nM.
Take `Cc1c(C(O)c2c(F)cccc2F)nc(N(C)C)[nH]c1=O` (stereo not given): the results for the EC50 in [8], in data set [9] and in data set [10] were 1000 nM, greater than 50000 nM and greater than 50000 nM, respectively. Moreover, the cytotoxic concentration (CC50) in the data set with MT4 [11] stood at 50000 nM.
With `C=CCc1c(Cc2cc(C)cc(C)c2)nc(SCC2OCCC(C)O2)[nH]c1=O` (stereo not given), the EC50 in [23] stood at 550 nM. In addition, the CC50 with MT4 [24] is greater than 100000 nM.
